{
  "source": "the supplement of paper PMC10331698",
  "test_in_all_cases": "level (log10 ratio to DMSO vehicle control); higher = higher biomarker level / cell amount than vehicle control",
  "key": {"[1]": {"compound": "NC(=O)C(F)(F)C(F)(F)C(F)(F)C(F)(F)C(N)=O [Octafluoroadipamide]", "details": "in DMSO", "method": "(§1)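 BioMAP Diversity Plus panel of 12 human primary cell co-culture systems (3C, 4H, LPS, SAg, BT, BF4T, BE3C, CASM3C, HDF3CGF, KF3CT, MyoF, Mphg). Compounds were added 1 h before stimulation and left for 24 h (MyoF 48 h; BT 72 h for soluble read-outs or 6 d for IgG). Biomarkers were read by ELISA, cytotoxicity by SRB, PBMC viability and proliferation by Alamar Blue. Each well value was divided by the mean of 8 DMSO control wells on the same plate and log10 transformed; duplicate blinded samples were tested at 4 concentrations.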"}, "[2]": {"compound": "FC(F)(F)C(F)(F)C(F)(F)C(F)(F)C(F)(F)C(F)(F)CC1CO1 [3-(Perfluorohexyl)-1,2-epoxypropane]", "details": "in DMSO", "method": "as §1"}, "[3]": {"compound": "O=C(O)C(F)(F)C(F)(F)C(F)(F)C(F)(F)C(F)(F)C(F)(F)C(F)(F)C(F)(F)C(F)(F)C(F)F [11-H-Perfluoroundecanoic acid]", "details": "in DMSO", "method": "as §1"}, "[4]": {"compound": "O=S(=O)(Cl)C(F)(F)C(F)(F)C(F)(F)C(F)(F)C(F)(F)C(F)(F)C(F)(F)C(F)(F)F [Perfluoro-1-octanesulfonyl chloride]", "details": "in DMSO", "method": "as §1"}, "[5]": {"compound": "NC(=O)C(F)(F)C(F)(F)C(F)(F)C(F)F", "details": "in DMSO", "method": "as §1"}, "[6]": {"compound": "FC(F)(F)C(F)(F)C(F)(F)C(F)(F)C(F)(F)C(F)(F)C(F)(F)I [1-Iodopentadecafluoroheptane]", "details": "in DMSO", "method": "as §1"}, "[7]": {"compound": "NS(=O)(=O)C(F)(F)C(F)(F)C(F)(F)C(F)(F)C(F)(F)C(F)(F)F [Perfluorohexanesulfonamide]", "details": "in DMSO", "method": "as §1"}, "[8]": {"compound": "C=CC(=O)OCC(F)(F)C(F)(F)C(F)(F)COC(=O)C=C [1H,1H,5H,5H-Perfluoro-1,5-pentanediol diacrylate]", "details": "6700 nM; in DMSO", "method": "as §1"}, "[9]": {"compound": "FC(F)(F)C(F)(F)C(F)(F)CC1CO1 [1H,1H-Heptafluorobutyl epoxide]", "details": "in DMSO", "method": "as §1"}, "[10]": {"compound": "C=C(C)C(=O)OCCC(F)(F)C(F)(F)C(F)(F)C(F)(F)C(F)(F)C(F)(F)F [6:2 Fluorotelomer methacrylate]", "details": "in DMSO", "method": "as §1"}, "[11]": {"compound": "O=S(=O)(O)C(F)(F)C(F)(F)C(F)(F)C(F)(F)C(F)(F)C(F)(F)C(F)(F)C(F)(F)C(F)(F)C(F)(F)F [Sodium perfluorodecanesulfonate]", "details": "in DMSO", "method": "as §1"}, "[12]": {"compound": "COC(=O)C(F)(F)C(F)(F)OC(F)(C(F)(F)F)C(F)(F)OC(F)=C(F)F [Methyl perfluoro(3-(1-ethenyloxypropan-2-yloxy)propanoate)]", "details": "in DMSO", "method": "as §1"}, "[13]": {"compound": "FC(F)(F)C(F)(F)C(F)(F)CI [Heptafluorobutyl iodide]", "details": "in DMSO", "method": "as §1"}, "[14]": {"compound": "OCC(F)(F)C(F)(F)C(F)(F)CO [Hexafluoroamylene glycol]", "details": "in DMSO", "method": "as §1"}, "[15]": {"compound": "O=S(=O)(F)C(F)(F)C(F)(F)C(F)(F)C(F)(F)C(F)(F)C(F)(F)C(F)(F)C(F)(F)F [Perfluorooctanesulfonyl fluoride]", "details": "in DMSO", "method": "as §1"}, "[16]": {"compound": "O=C(O)C=CC(F)(C(F)(F)F)C(F)(F)F [3-(Perfluoroisopropyl)-2-propenoic acid]", "details": "in DMSO", "method": "as §1"}, "[17]": {"compound": "FC(F)(F)C(F)(F)CNCC(F)(F)C(F)(F)F [Bis(1H,1H-perfluoropropyl)amine]", "details": "in DMSO", "method": "as §1"}, "[18]": {"compound": "NC(=O)C(F)(F)C(F)(F)C(F)(F)C(F)(F)F [Nonafluoropentanamide]", "details": "in DMSO", "method": "as §1"}, "[19]": {"compound": "O=S(=O)(O)CCC(F)(F)C(F)(F)C(F)(F)C(F)(F)C(F)(F)C(F)(F)F [6:2 Fluorotelomer sulfonic acid]", "details": "in DMSO", "method": "as §1"}},
  "note": "± gives the standard deviation of the averaged measurements.",
  "data": [
    {"test system": "lMphg:CD69", "values": [
      {"measurement": "level (log10)", "setting": "[1]; 6700 nM", "result": "-0.0425 ± 0.052"},
      {"measurement": "level (log10)", "setting": "[1]; 20000 nM", "result": "-0.027 ± 0.042"},
      {"measurement": "level (log10)", "setting": "[1]; 60000 nM", "result": "0.0275 ± 0.063"},
      {"measurement": "level (log10)", "setting": "[2]; 6700 nM", "result": "0.004 ± 0.025"},
      {"measurement": "level (log10)", "setting": "[2]; 20000 nM", "result": "-0.007 ± 0.021"},
      {"measurement": "level (log10)", "setting": "[2]; 60000 nM", "result": "0.0235 ± 0.049"},
      {"measurement": "level (log10)", "setting": "[3]; 6700 nM", "result": "-0.054 ± 0.0085"},
      {"measurement": "level (log10)", "setting": "[3]; 20000 nM", "result": "-0.039 ± 0.013"},
      {"measurement": "level (log10)", "setting": "[4]; 6700 nM", "result": "-0.054 ± 0.0099"},
      {"measurement": "level (log10)", "setting": "[4]; 20000 nM", "result": "-0.0855 ± 0.033"},
      {"measurement": "level (log10)", "setting": "[4]; 60000 nM", "result": "-0.111 ± 0.09"},
      {"measurement": "level (log10)", "setting": "[5]; 6700 nM", "result": "0.0265 ± 0.018"},
      {"measurement": "level (log10)", "setting": "[5]; 20000 nM", "result": "-0.015 ± 0.0071"},
      {"measurement": "level (log10)", "setting": "[5]; 60000 nM", "result": "-0.0115 ± 0.0078"},
      {"measurement": "level (log10)", "setting": "[6]; 6700 nM", "result": "-0.0455 ± 0.043"},
      {"measurement": "level (log10)", "setting": "[6]; 20000 nM", "result": "-0.079 ± 0.062"},
      {"measurement": "level (log10)", "setting": "[7]; 6700 nM", "result": "-0.02 ± 0.023"},
      {"measurement": "level (log10)", "setting": "[7]; 20000 nM", "result": "-0.066 ± 0.02"},
      {"measurement": "level (log10)", "setting": "[7]; 60000 nM", "result": "-0.169 ± 0.0085"},
      {"measurement": "level (log10)", "setting": "[8]", "result": "-0.0015 ± 0.0078"},
      {"measurement": "level (log10)", "setting": "[9]; 6700 nM", "result": "-0.0285 ± 0.0064"},
      {"measurement": "level (log10)", "setting": "[9]; 20000 nM", "result": "0.005 ± 0.041"},
      {"measurement": "level (log10)", "setting": "[9]; 60000 nM", "result": "0.045 ± 0.081"},
      {"measurement": "level (log10)", "setting": "[10]; 6700 nM", "result": "-0.0125 ± 0.049"},
      {"measurement": "level (log10)", "setting": "[10]; 20000 nM", "result": "-0.046 ± 0.0028"},
      {"measurement": "level (log10)", "setting": "[10]; 60000 nM", "result": "-0.0915 ± 0.019"},
      {"measurement": "level (log10)", "setting": "[11]; 1500 nM", "result": "-0.001 ± 0.014"},
      {"measurement": "level (log10)", "setting": "[11]; 4400 nM", "result": "-0.022 ± 0.052"},
      {"measurement": "level (log10)", "setting": "[11]; 13000 nM", "result": "-0.0095 ± 0.032"},
      {"measurement": "level (log10)", "setting": "[11]; 40000 nM", "result": "-0.084 ± 0.011"},
      {"measurement": "level (log10)", "setting": "[12]; 6700 nM", "result": "-0.067 ± 0.047"},
      {"measurement": "level (log10)", "setting": "[12]; 20000 nM", "result": "-0.0985 ± 0.07"},
      {"measurement": "level (log10)", "setting": "[13]; 6700 nM", "result": "-0.048 ± 0.03"},
      {"measurement": "level (log10)", "setting": "[13]; 20000 nM", "result": -0.033},
      {"measurement": "level (log10)", "setting": "[13]; 60000 nM", "result": "-0.026 ± 0.025"},
      {"measurement": "level (log10)", "setting": "[14]; 6700 nM", "result": "-0.046 ± 0.027"},
      {"measurement": "level (log10)", "setting": "[14]; 20000 nM", "result": "-0.0425 ± 0.025"},
      {"measurement": "level (log10)", "setting": "[14]; 60000 nM", "result": "-0.027 ± 0.0071"},
      {"measurement": "level (log10)", "setting": "[15]; 6700 nM", "result": "-0.0075 ± 0.036"},
      {"measurement": "level (log10)", "setting": "[15]; 20000 nM", "result": "-0.0125 ± 0.029"},
      {"measurement": "level (log10)", "setting": "[15]; 60000 nM", "result": "-0.0175 ± 0.032"},
      {"measurement": "level (log10)", "setting": "[16]; 6700 nM", "result": "-0.0265 ± 0.022"},
      {"measurement": "level (log10)", "setting": "[16]; 20000 nM", "result": "-0.021 ± 0.035"},
      {"measurement": "level (log10)", "setting": "[16]; 60000 nM", "result": "0.0235 ± 0.049"},
      {"measurement": "level (log10)", "setting": "[17]; 6700 nM", "result": "-0.017 ± 0.028"},
      {"measurement": "level (log10)", "setting": "[17]; 20000 nM", "result": "-0.012 ± 0.03"},
      {"measurement": "level (log10)", "setting": "[17]; 60000 nM", "result": "0.0045 ± 0.14"},
      {"measurement": "level (log10)", "setting": "[18]; 6700 nM", "result": -0.005},
      {"measurement": "level (log10)", "setting": "[18]; 20000 nM", "result": "-0.021 ± 0.016"},
      {"measurement": "level (log10)", "setting": "[18]; 60000 nM", "result": "-0.028 ± 0.018"},
      {"measurement": "level (log10)", "setting": "[19]; 6700 nM", "result": "-0.034 ± 0.04"},
      {"measurement": "level (log10)", "setting": "[19]; 20000 nM", "result": "-0.065 ± 0.054"},
      {"measurement": "level (log10)", "setting": "[19]; 60000 nM", "result": "-0.073 ± 0.025"}
    ]}
  ]
}
